Reference: US20160089391A1, “Molecular Targets for Cardiovascular Disease” (Temple University-of the Commonwealth System of Higher …, priority 2014, published 2016)
Residues, ends and D or L forms follow the SMILES beside them.

Legend:
mouse thoracic aorta = experiment: Endothelium-dependent vascular relaxation to ACh in aortic rings treated ex vivo (multiple-wire myograph); conditions: for endothelium-dependent vascular relaxation to ACh: aortic rings of HHcy/HG-Cbs−/+ mice preincubated 1 hr with antioxidant (PEG-SOD 150 U/mL, Tempol 1 mmol/L, apocynin 10 μmol/L); for endothelium-dependent vascular relaxation to ACh / aortic endothelium-dependent vascular relaxation to ACh: p<0.05; for aortic endothelium-dependent vascular relaxation to ACh: aortic rings of HHcy/HG-Cbs−/+ mice preincubated with calpain inhibitor 20 μmol/L for 1 hour
calpain [1] = experiment: t-BOC calpain activity assay in intact HAECs; assay type: cell-based, human; conditions: HAECs treated with DL-Hcy 500 μmol/L and D-Glu 25 mmol/L; PEG-SOD 150 U/mL, 48 hrs
Procedure: (FIG. 5A). In situ .O2^− production in aorta. (FIG. 5B). Nitrotyrosine (3-NT) levels. Aortic paraffin-cross sections (7 μm) from Cbs^−/+ mice were stained with 3-NT antibody and 3,3′-diaminobenzidine (DAB, brown). (FIG. 5C). Urinary 8-isoprostane levels. At the age of 8-week, Cbs^+/+ and Cbs^−/+ mice were fed with a high methionine diet (HM, methionine: 2% w/w) for 8 weeks, and/or injected with streptozotocin (STZ, i.p., 40 mg/kg) for 5 consecutive days starting from the first day of experiment. Mice fed with a control diet (CT, methionine: 0.37% w/w) and injected with vehicle (50 mM citrate buffer) served as controls. Aortic cryo-cross sections (30 μm) from Cbs^−/+ mice were stained with the superoxide marker dihydroethidium (DHE, 3 μmol/L, 30 mins.). Urine was collected from 24 hrs metabolic cage. (FIG. 5D). Endothelium-dependent vascular relaxation in HHcy/HG CBS^−/+ mouse aorta in the presence of antioxidants. Arterial rings were pre-contracted with phenylephrine (1 μmol/L) and examined for relaxation to cumulative additions of ACh in the aorta of STZ-treated Cbs^−/+ mice on HM diet. The arterial rings were preincubated with antioxidants polyethylene glycol superoxide dismutase (PEG-SOD, 150 U/mL, Sigma #S9549), Tempol (1 mmol/L, Sigma #176141), or apocynin (10 μmol/L, Sigma #W508454) for 1 hr. n=3-5. *p<0.05 vs vehicle-treated Cbs^−/+ mice on CT diet; †p<0.05 vs vehicle-treated Cbs^−/+ mice on HM diet; ‡p<0.05 vs STZ-treated Cbs^−/+ mice on CT diet; #p<0.05 vs STZ-treated Cbs^−/+ mice on HM diet. (FIG. 5E). […] Calpain activity was measured by the fluorescent substrate t-BOC-Leu-Met-CMAC (T-BOC, 10 μmol/L, 30 min) Human aortic endothelial cells (HAECs, passage 8-9) were cultured in EC medium which contains 5 mmol/L D-glucose (D-Glu), treated with DL-homocysteine (DL-Hcy, 500 μmol/L) and/or D-Glu (25 mmol/L) with or without […] (150 U/mL) or MDL28170 (MDL, 20 μmol/L) for 48 hrs, or CTsiRNA and μ-calpsiRNA for 72 hrs. […] Transfection effect of μ-calpsiRNA in HAECs was detected by Western blot after transfected with the siRNA for indicated time. […]

NO production in HAECs = NO production in HAECs by DAF-FM staining; assay type: cell-based, human; conditions: HAECs; L-NAME 100 μmol/L added in the last hour (negative control)
Procedure: (§1) (FIG. 6A). Images of NO. Nitric oxide (NO) production in HAECs was measured by staining intact HAECs with NO marker DAF-FM. N^G-nitro-L-arginine methyl ester (L-NAME, 100 μmol/L, Sigma #N5751) was added in the last hour as a negative control. (FIG. 6B). Quantification of NO. (FIG. 6C). eNOS activity. Human aortic endothelial cells (HAECs) were cultured in EC medium which contains 5 mmol/L D-Glucose (D-Glu), and treated with DL-homocysteine (DL-Hcy, 500 μmol/L) and/or (D-Glu, 25 mmol) without or with MDL28170 (MDL) for 48 hrs, CTsiRNA or μ-calpsiRNA for 72 hrs. L-NAME (100 μmol/L) was added in the last hour. NO was measured by staining intact HAECs with NO marker (DAF-FM, 10 μmol/L, Sigma #D2321, 30 mins.). Endothelial nitric oxide synthase (eNOS) activity was assessed by measuring of ^3H-L-arginine conversion to ^3H-citrulline in intact HAECs. n=3, *p<0.05 vs control; †p<0.05 vs DL-Hcy-treated HAECs; ‡p<0.05 vs D-Glu-treated HAECs; #p<0.05 vs DL-Hcy/D-Glu-treated HAECs. DAF-FM, 4-Amino-5-methylamino-2′,7′-difluorescein; CTsiRNA, control siRNA; HG, hyperglycemia; HHcy, hyperhomocysteinemia; μ-calpsiRNA, μ-calpain siRNA.
(§2) HAECs treated with or without DL-Hcy and/or D-Glu for 48 hrs were stained with 4-Amino-5-Methylamino-2′,7′-Difluorofluorescein (DAF-FM). To explore the role of calpain, especially μ-calpain, the DL-Hcy/D-Glu-treated HAECs were also treated with MDL28170 (MDL, 20 μmol/L) and μ-calpain siRNA, respectively. HAECs treated with L-NAME (100 μmol/L) for 1 hr before DAF-FM staining were used as negative controls. eNOS activity in HAECs was determined by measuring the conversion of ^3H-Arg to ^3H-citrulline in intact cells as previous described (Jiang et al., 2005, Arterioscl Throm Vas 25:2515-2521).

eNOS = target: T1, eNOS (Homo sapiens, UniProt P29474); experiment: eNOS activity in intact HAECs (3H-Arg to 3H-citrulline conversion); assay type: cell-based; conditions: HAECs; L-NAME 100 μmol/L added in the last hour
T1 construct: endogenous in cells; host or cells: HAECs (human aortic endothelial cells)
T1 sequence (P29474 2-1203 limits assumed): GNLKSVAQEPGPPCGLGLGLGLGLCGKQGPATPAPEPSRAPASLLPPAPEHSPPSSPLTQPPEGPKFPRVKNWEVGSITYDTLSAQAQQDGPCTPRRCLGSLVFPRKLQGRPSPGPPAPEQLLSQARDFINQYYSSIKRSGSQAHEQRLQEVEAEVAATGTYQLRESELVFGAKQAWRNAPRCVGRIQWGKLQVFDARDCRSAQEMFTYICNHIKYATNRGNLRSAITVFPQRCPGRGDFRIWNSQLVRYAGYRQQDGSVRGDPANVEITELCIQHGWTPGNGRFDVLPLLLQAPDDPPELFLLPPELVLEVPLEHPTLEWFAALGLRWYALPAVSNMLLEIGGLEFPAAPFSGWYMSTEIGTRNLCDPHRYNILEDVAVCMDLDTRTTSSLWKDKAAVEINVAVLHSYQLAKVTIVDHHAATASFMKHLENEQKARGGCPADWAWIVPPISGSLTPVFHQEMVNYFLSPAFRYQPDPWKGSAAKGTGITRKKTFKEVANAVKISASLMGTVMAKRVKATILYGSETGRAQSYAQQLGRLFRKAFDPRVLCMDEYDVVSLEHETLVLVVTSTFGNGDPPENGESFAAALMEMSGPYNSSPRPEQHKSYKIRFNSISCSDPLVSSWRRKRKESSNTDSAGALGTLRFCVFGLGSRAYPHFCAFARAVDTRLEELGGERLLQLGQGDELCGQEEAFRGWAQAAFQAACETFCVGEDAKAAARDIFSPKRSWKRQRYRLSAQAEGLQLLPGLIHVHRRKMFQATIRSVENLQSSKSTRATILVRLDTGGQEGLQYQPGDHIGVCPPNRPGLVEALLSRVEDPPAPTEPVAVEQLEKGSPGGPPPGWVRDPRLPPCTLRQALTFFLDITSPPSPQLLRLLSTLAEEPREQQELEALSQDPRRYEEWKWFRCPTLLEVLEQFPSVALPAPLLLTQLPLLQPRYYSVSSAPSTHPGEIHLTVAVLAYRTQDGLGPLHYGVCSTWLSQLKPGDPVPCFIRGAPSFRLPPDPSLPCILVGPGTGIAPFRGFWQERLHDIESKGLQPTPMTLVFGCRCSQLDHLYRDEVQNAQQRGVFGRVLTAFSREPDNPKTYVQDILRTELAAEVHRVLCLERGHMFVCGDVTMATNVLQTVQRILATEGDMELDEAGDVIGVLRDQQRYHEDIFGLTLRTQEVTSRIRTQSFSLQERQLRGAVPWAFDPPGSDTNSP
Procedure: as §1, §2

aorta of db/db mice = conditions: supplementation, via the NO pathway (Seto et al., 2010); cited from earlier work
eNOS-pThr495 = eNOS-pThr495 protein levels in HAECs; assay type: cell-based, human; conditions: HAECs with DL-Hcy 500 μmol/L and D-Glu 25 mmol/L 48 hrs; GFX 2 μmol/L 30 min; MDL 20 mmol/L 48 hrs; Adv-dnPKCβ2 200 MOI 72 hrs; siRNA 72 hrs
Procedure: (FIG. 7A). eNOS protein levels in mouse aorta of Cbs^−/+ mice (Left Panel) and HAECs (Right Panel). (FIG. 7B). eNOS-pThr497/495 protein levels in mouse aorta of Cbs^−/+ mice (Left Panel) and in HAECs (Right Panel). At the age of 8-week, Cbs^−/+ mice were fed with a high methionine diet (HM, methionine: 2% w/w) for 8 weeks, and/or injected with streptozotocin (STZ, i.p., 40 mg/kg) for 5 consecutive days starting from the first day of experiment. Mice fed with a control diet (CT, methionine: 0.37% w/w) and injected with vehicle (50 mmol/L citrate buffer) served as controls. Human aortic endothelial cells (HAECs, passage 8-9) were cultured in EC medium which contains 5 mmol/L D-glucose (D-Glu), treated with DL-homocysteine (DL-Hcy, 500 μmol/L) and/or D-Glu (25 mmol/L). (FIG. 7C). eNOS-pThr495 protein levels in HAECs. HAECs (passage 8-9) were cultured in EC medium which contains 5 mmol/L D-glucose (D-Glu), treated with DL-homocysteine (DL-Hcy, 500 μmol/L) and D-Glu (25 mmol/L for 48 hrs with or without non-specific PKC inhibitor GF109203X (GFX) (2 μmol/L, 30 min.); control adenoviruse (Ad-CT, 200 MOI, 72 hrs), dominant negative PKCβ2 adenovirus (Adv-dnPKCβ2, 200 MOI, 72 hrs); μ-calpain siRNA (μ-calpsiRNA, Santa Cruz #sc-29885, 72 hrs), or MDL ([…], 48 hrs, Sigma #M6690). (FIG. 7D). Transfection effect of Adv-dnPKCβ2in HAECs. Cultured HAECs (passage 8, 80% confluence) were treated with 12.5, 25, 50, 100 and 200 MOI Adv-dnPKCβ2 for 48 hrs. n=3, *p<0.05 vs control; †p<0.05 vs DL-Hcy-treated HAECs; ‡p<0.05 vs D-Glu-treated HAECs; #p<0.05 vs DL-Hcy/D-Glu-treated HAECs. Cbs, cystathionine β-synthase; eNOS, endothelial nitric oxide synthase; eNOS-pThr495/497, phosphorylation of eNOS at threonine 497 (mouse)/495 (human).
Human aortic endothelial cells (HAECs) were cultured in cell culture medium (M199, HyClone) as previously described (Wang et al., 1997, J Biol Chem 272:25380-25385). The HAECs were treated with DL-Hcy (200 or 500 μmol/L) and/or D-glucose (D-Glu, 25 mmol/L) for 24 or 48 hrs in the presence or absence of selected pharmacological inhibitors or siRNA or adenovirus.

calpain [2] = conditions: mouse microvascular endothelial cells (Smolock et al., 2011); cited from earlier work

CC1(C)CC(O)CC(C)(C)N1[O] [Tempol]
endothelium-dependent vascular relaxation to ACh (mouse thoracic aorta): significantly improved

COc1cc(C(C)=O)ccc1O [apocynin]
endothelium-dependent vascular relaxation to ACh (mouse thoracic aorta): significantly improved

polyethylene glycol superoxide dismutase [PEG-SOD]
decrease of HHcy/HG-induced calpain activation (calpain [1]): 49%
endothelium-dependent vascular relaxation to ACh (mouse thoracic aorta): significantly improved

CCCC[C@@H](C=O)NC(=O)[C@H](CC(C)C)NC(=O)OCc1ccccc1 [calpeptin]
aortic endothelium-dependent vascular relaxation to ACh (mouse thoracic aorta): markedly improved

COC(=O)[C@@H](N)CCCNC(=N)N[N+](=O)[O-] [L-NAME, N^G-nitro-L-arginine methyl ester]
NO generation (NO production in HAECs): 5.7%
eNOS activity (eNOS): 10%
vascular relaxation response to ACh (mouse thoracic aorta; aorta of all groups (Cbs+/+ and Cbs−/+, HHcy and/or HG), L-NAME 100 μmol/L, 30 min): completely abolished

Nc1nc2ncc(CNc3ccc(C(=O)N[C@@H](CCC(=O)O)C(=O)O)cc3)nc2c(=O)[nH]1 [Folic acid]
endothelium-dependent vascular relaxation responses to ACh (aorta of db/db mice): improved

CN(C)CCCn1cc(C2=C(c3c[nH]c4ccccc34)C(=O)NC2=O)c2ccccc21 [GFX, GF109203X]
HHcy/HG-induced eNOS-pThr495 (eNOS-pThr495): completely rescued

CSCC[C@@H](C=O)NC(=O)[C@H](CC(C)C)NC(=O)[C@H](CC(C)C)NC(C)=O [ALLM, N-Acetyl-Leu-Leu-Met-CHO] (Ac-Leu-Leu-Met-aldehyde)
aortic endothelium-dependent vascular relaxation to ACh (mouse thoracic aorta): markedly improved

CN(C)CCCn1cc(C2=C(c3c[nH]c4ccccc34)C(=O)NC2=O)c2ccccc21 [BIM-1]
calpain activity (calpain [2]): decreased
